For series [1], the target named is recombinant L. donovani CYP51 (Leishmania donovani, UniProt A0A3S7WRS7). Kind of series: Fluorescence-based L. donovani CYP51 inhibition assay. It counts as biochemical.
The subject of series [2] is intracellular L. donovani. Kind of series: L. donovani-infected macrophage assay. The note with it: for IC50: read-out: IC50 against L. donovani; for inhibition at 50 µM: read-out: Inhibition of parasitemia at 50 μM, 50 μM. It counts as cell-based, Leishmania donovani.
A further series concerns HepG2 cells. Kind of series: HepG2 toxicity assay. It counts as cell-based. The note with it: for IC50: Homo sapiens, HepG2, 72 h, read-out: IC50 against HepG2.
Another series relates to J774 macrophages. Kind of series: J774 macrophage toxicity assay. It counts as cell-based, mouse. Particulars: for IC50: Mus musculus, J774, read-out: IC50 against J774 macrophages.
Series [3] is described as follows: Microsomal stability, mouse liver microsomes. It counts as in vitro ADME. The note with it: for remaining at 1 h, 3 μM: mouse, liver microsomes.
Series [4] is described as follows: Microsomal stability, human liver microsomes. It counts as in vitro ADME. Particulars: for remaining at 1 h, 3 μM: human, liver microsomes.
Where [5] appears, read: Leishmania donovani, Macrophage.
Setting [6] is: Leishmania donovani, Macrophage, intracellular L. donovani, mean ± S.E.M., n=3.
Where [7] appears, read: substrate 3 μM, LC-MS detection.

SMILES strings stand for the structures.

Take `N=C(Nc1ccc(OCCCCCCCCn2ccnc2)c(Cl)c1)c1ccccn1` [Compound 9i, N-(4-((8-(1H-imidazol-1-yl)octyl)oxy)-3-chlorophenyl) picolinimidamide]: the half-maximal inhibitory concentration (IC50) was determined as 0.18 ± 0.01 µM in series [1], 1.3 ± 0.2 µM in series [2] (setting [5]), 7.7 ± 1.5 µM with HepG2 cells and 6.8 ± 0.7 µM in the series with J774 macrophages. For the same molecule, in series [1] (compared to 9h), the “Fold more potent as inhibitor of L. donovani CYP51 compared to 9h” value is “about 2 fold”.

`N=C(Nc1ccc(OCCCCn2ccnc2)cc1)c1ccccn1` [Compound 9d, N-(4-(4-(1H-imidazol-1-yl)butoxy)phenyl) picolinimidamide]: the IC50 in series [1] was 6.4 ± 0.1 µM; in series [2] (setting [5]), 18 ± 3 µM; with HepG2 cells, greater than 20 µM; with J774 macrophages, greater than 50 µM.

With `CC(C)Oc1cc(NC(=N)c2ccccn2)ccc1-c1ccc(-c2ccc(NC(=N)c3ccccn3)cc2OC(C)C)o1` [Compound 1, reference compound], the “Inhibition of L. donovani CYP51 (in words)” value in series [1] (at concentrations 5–10 times greater than their IC50 against intracellular L. donovani, M.Z. Wang, unpublished observations) is reported as “weak inhibitors”.

Consider `CC(C)Oc1cc(NC(=N)c2ccccn2)ccc1OCCCCCCCCn1ccnc1` [Compound 17c, N-(4-((8-(1H-imidazol-1-yl)octyl)oxy)3-isopropoxyphenyl) picolinimidamide], for which the IC50 was 0.29 ± 0.01 µM in series [1], 0.97 ± 0.07 µM in series [2] (setting [5]), 18 ± 1 µM in the series with HepG2 cells and 7.8 ± 0.3 µM in the series on J774 macrophages. In addition, the values for the share remaining at 1 h, 3 μM in series [3] and in series [4] were 100% and greater than 80%, respectively.

Take `COc1cc(OCCCCCCCCn2ccnc2)ccc1NC(=N)c1ccccn1` [Compound 24a, N-(4-((8-(1H-imidazol-1-yl)octyl)oxy)-2-methoxyphenyl) picolinimidamide]: the IC50 in series [1] turned out to be 0.36 ± 0.01 µM; in series [2] (setting [5]), 1.5 ± 0.4 µM; with HepG2 cells, 16 ± 2 µM; in the series with J774 macrophages it was 9.3 ± 0.5 µM. The fraction remaining at 1 h, 3 μM in series [3] and in series [4] was greater than 80% in each case.

As to `CC(=O)N1CCN(c2ccc(OCC3COC(Cn4ccnc4)(c4ccc(Cl)cc4Cl)O3)cc2)CC1` (centres unmarked) [Ketoconazole, ketoconazole, reference compound], the IC50 in series [1] came to 0.048 ± 0.004 µM. Moreover, in series [2] (setting [6]), the inhibition at 50 µM worked out at 50 ± 7%.

With `COc1cc(NC(=N)c2ccccn2)ccc1OCCCCCCCCn1ccnc1` [Compound 17a, N-(4-((8-(1H-imidazol-1-yl)octyl)oxy)3-methoxyphenyl) picolinimidamide], the IC50 in series [1] amounted to 0.57 ± 0.01 µM; in series [2] (setting [5]), 2.2 ± 0.3 µM; in the series with HepG2 cells, 23 ± 2 µM; in the series on J774 macrophages, 16 ± 1 µM. In addition, the share remaining at 1 h, 3 μM in series [3] and in series [4] was 100% in each case.

Regarding `CCOc1cc(NC(=N)c2ccccn2)ccc1OCCCCCCCCn1ccnc1` [Compound 17b, N-(4-((8-(1H-imidazol-1-yl)octyl)oxy)3-ethoxyphenyl) picolinimidamide], the half-maximal inhibitory concentration (IC50) in series [1] is 0.53 ± 0.02 µM; in series [2] (setting [5]), 1.9 ± 0.3 µM; in the series with HepG2 cells, 13 µM; in the series on J774 macrophages, 9 ± 1.3 µM.

Regarding `N=C(Nc1ccc(OCCCCCCCCn2ccnc2)cc1Cl)c1ccccn1` [Compound 9j, N-(4-((8-(1H-imidazol-1-yl)octyl)oxy)-2-chlorophenyl) picolinimidamide], the concentration for half-maximal inhibition (IC50) in series [1] was determined as 0.15 ± 0.01 µM; in series [2] (setting [5]), 2.1 ± 0.2 µM; with HepG2 cells, 8.6 ± 1.2 µM; in the series on J774 macrophages, 8.6 ± 1.2 µM. The “Fold more potent as inhibitor of L. donovani CYP51 compared to 9h” value in series [1] (compared to 9h) is given as “about 2 fold”.

For the molecule `N=C(Nc1ccc(OCCCCn2cncn2)cc1)c1ccccn1` [Compound 9e, N-(4-(4-(1H-1,2,4-triazol-1-yl)butoxy)phenyl) picolinimidamide], the IC50 was 89 ± 4 µM in series [1], greater than 100 µM in series [2] (setting [5]), greater than 100 µM in the series with HepG2 cells and greater than 50 µM with J774 macrophages.

Turning to `N=C(Nc1ccc(OCCn2cncn2)cc1)c1ccccn1` [Compound 9b, N-(4-(2-(1H-1,2,4-triazol-1-yl)ethoxy)phenyl) picolinimidamide], the IC50 was 35 ± 2 µM in series [1], greater than 100 µM in series [2] (setting [5]), greater than 100 µM with HepG2 cells and greater than 50 µM in the series on J774 macrophages.

Regarding `CCOc1cc(OCCCCCCCCn2ccnc2)ccc1NC(=N)c1ccccn1` [Compound 24b, N-(4-((8-(1H-imidazol-1-yl)octyl)oxy)-2-ethoxyphenyl) picolinimidamide], the IC50 in series [1] was 0.34 ± 0.01 µM; in series [2] (setting [5]), 0.73 ± 0.15 µM; with HepG2 cells, 12 ± 2 µM; in the series with J774 macrophages, 6.8 ± 0.1 µM. Also, the results for the fraction remaining at 1 h, 3 μM in series [3] and in series [4] were 100% and greater than 80%, respectively.

As to `C[C@@H]1[C@H](O)[C@@H](C)/C=C/C=C/C=C/C=C/C=C/C=C/C=C/[C@H](O[C@@H]2O[C@H](C)[C@@H](O)[C@H](N)[C@@H]2O)C[C@@H]2O[C@](O)(C[C@@H](O)C[C@@H](O)[C@H](O)CC[C@@H](O)C[C@@H](O)CC(=O)O[C@H]1C)C[C@H](O)[C@H]2C(=O)O` [Amphotericin B, reference compound], the concentration for half-maximal inhibition (IC50) in series [2] (setting [5]) came to 0.045 ± 0.003 µM.

Consider `CCN(CC)CCCC(C)Nc1c2ccc(Cl)cc2nc2ccc(OC)cc12` (centres unmarked) [Quinacrine, reference compound], for which, in the series with HepG2 cells, the 50% inhibitory concentration (IC50) is 5.5 ± 0.7 µM.

In the case of `N=C(Nc1ccc(OCCCCCCn2ccnc2)cc1)c1ccccn1` [Compound 9g, N-(4-((6-(1H-imidazol-1-yl)hexyl)oxy)phenyl) picolinimidamide], the IC50 in series [1] is 1.3 ± 0.1 µM; in series [2] (setting [5]), 8.8 ± 0.6 µM; in the series with HepG2 cells, 20 ± 3 µM; with J774 macrophages, greater than 40 µM.

Regarding `N=C(Nc1ccc(OCCCCCn2ccnc2)cc1)c1ccccn1` [Compound 9f, N-(4-((5-(1H-imidazol-1-yl)pentyl)oxy)phenyl) picolinimidamide], the IC50 in series [1] was 4.8 ± 0.1 µM; in series [2] (setting [5]), 13 ± 5 µM; with HepG2 cells, 42 ± 4 µM; in the series on J774 macrophages it was greater than 50 µM.

As to `N=C(Nc1ccc(OCCCCCCCCn2cncn2)cc1)c1ccccn1` [Compound 9k, N-(4-((8-(1H-1,2,4-triazol-1-yl)octyl)oxy)phenyl) picolinimidamide], the IC50 was determined as 1.9 ± 0.1 µM in series [1], 32 ± 5 µM in the series on HepG2 cells and 36 ± 1 µM in the series on J774 macrophages. The inhibition at 12.5 µM in series [2] (Leishmania donovani, Macrophage, read-out: Inhibition of parasitemia at 12.5 μM, 12.5 μM, intracellular L. donovani, mean ± S.E.M., n=3) is roughly 50%. Also, the “Decrease in potency against intracellular L. donovani compared with 9h” value in series [2] (compared with 9h) is reported as greater than 10 fold.

For the molecule `CC[C@@H]([C@H](C)O)n1ncn(-c2ccc(N3CCN(c4ccc(OC[C@@H]5CO[C@@](Cn6cncn6)(c6ccc(F)cc6F)C5)cc4)CC3)cc2)c1=O` [Posaconazole, posaconazole, reference compound], the IC50 in series [1] is 0.059 ± 0.001 µM. Besides, the inhibition at 7.5 µM in series [2] (Leishmania donovani, Macrophage, read-out: Inhibition of parasitemia at 7.5 μM, 7.5 μM, intracellular L. donovani, mean ± S.E.M., n=3) was determined as 47 ± 2%.

On to `N=C(Nc1ccc(OCCn2ccnc2)cc1)c1ccccn1` [Compound 9a, N-(4-(2-(1H-imidazol-1-yl)ethoxy)phenyl) picolinimidamide], for which the IC50 in series [1] is 21 ± 1 µM; in series [2] (setting [5]), greater than 50 µM; in the series with HepG2 cells it was greater than 50 µM; in the series with J774 macrophages it was greater than 50 µM.

For the molecule `N=C(Nc1ccc(OCCCCCCCCn2cccc2)cc1)c1ccccn1` [Compound 9m, N-(4-((8-(1H-pyrrol-1-yl)octyl)oxy)phenyl) picolinimidamide], the IC50 in series [1] was 14 ± 1 µM; in series [2] (setting [5]) it was 1.7 ± 0.3 µM; with HepG2 cells it was 13 ± 2 µM; in the series on J774 macrophages, 11 ± 1 µM. The “Fold less active as a CYP51 inhibitor than 9h” value in series [1] (compared to 9h) was determined as 39 fold.

As for `N=C(NCCCCCCCCn1ccnc1)c1ccccn1` [Compound 28, N-(8-(1H-imidazol-1-yl)octyl)picolinimidamide], the IC50 (in series [2] (setting [5]); with HepG2 cells) was greater than 100 µM throughout.

As for `COc1cc([C@@H]2c3cc4c(cc3[C@H](O)[C@H]3COC(=O)[C@H]23)OCO4)cc(OC)c1OC` [Podophyllotoxin, reference compound], the IC50 in the series with J774 macrophages amounted to 0.025 ± 0.001 µM.

As to `N=C(Nc1ccc(OCCCCCCCCn2ccnc2)cc1)c1ccccc1` [Compound 9n, N-(4-((8-(1H-imidazol-1-yl)octyl)oxy)phenyl)benzimidamide], the IC50 in series [1] is 0.34 ± 0.01 µM; in series [2] (setting [5]), 1.2 ± 0.1 µM; with HepG2 cells it was 4.9 ± 1 µM; in the series with J774 macrophages, 0.48 ± 0.02 µM. Besides, the “Increase in HepG2 activity compared to 9h” value in the series on HepG2 cells (compared to 9h) is 2.4 fold. Besides, the “Increase in potency against J774 cells compared to 9h” value in the series with J774 macrophages (compared to 9h) was 22 fold.

Consider `COc1cccc2c1C(=O)c1c(O)c3c(c(O)c1C2=O)C[C@@](O)(C(=O)CO)C[C@@H]3O[C@H]1C[C@H](N)[C@H](O)[C@H](C)O1` [Doxorubicin, reference compound], for which the IC50 with HepG2 cells turned out to be 0.2 ± 0.02 µM.

As for `N=C(Nc1ccc(OCCCCCCCCCCn2ccnc2)cc1)c1ccccn1` [Compound 9l, N-(4-((10-(1H-imidazol-1-yl)decyl)oxy)phenyl) picolinimidamide], the IC50 in series [1] came out at 0.22 ± 0.01 µM; in series [2] (setting [5]), 1.4 ± 0.2 µM; in the series with HepG2 cells, 6.9 ± 1 µM; in the series with J774 macrophages, 4.9 ± 0.9 µM. Besides, the “Mouse liver microsome t1/2” value in series [3] (setting [7]) worked out at 1.13 h. Moreover, in series [4] (setting [7]), the “Human liver microsome t1/2” value worked out at 0.95 h.

Regarding `N=C(Nc1ccc(OCCCn2ccnc2)cc1)c1ccccn1` [Compound 9c, N-(4-(3-(1H-imidazol-1-yl)propoxy)phenyl) picolinimidamide], the IC50 in series [1] was 22 µM; in series [2] (setting [5]), greater than 25 µM; with HepG2 cells, greater than 50 µM; in the series on J774 macrophages, greater than 50 µM.

In the case of `OC(Cn1cncn1)(Cn1cncn1)c1ccc(F)cc1F` [Fluconazole, fluconazole, reference compound], in series [1], the IC50 turned out to be 0.96 ± 0.03 µM. Besides, in series [2] (setting [6]), the inhibition at 50 µM is 16 ± 3%.

The values above are taken from publication PMC8553517 (ACS infectious diseases, 2021).
